# Like-named read-outs stand apart in the source and are kept apart here.
# Tests used:
# [1] = oral nicotine, human; from Hukkanen et al. and US 20130017259A1; cited from earlier work
# [2] = amnestic MCI subjects, six months, cited from earlier work
# [3] = clinical
# Procedure: The graph is based on the oral nicotine administration protocol administering a 6 mg nicotine tablet every 6 hours, as described in International Patent Publication No. WO 2013/006643, the entirety of which is incorporated by reference herein.
# To obtain the graph shown in FIG. 2, the plasma concentration-time profile of oral nicotine was simulated using the pharmacokinetic equation (equation 1) for multiple-dose oral administration: […]
# where F is oral bioavailability. D is oral dose, ka is absorption rate constant. Vd is volume of distribution, ke is elimination rate constant, s is dose interval, n is the number of dose, and C is the plasma concentration at any time ‘t’.
# The pharmacokinetic parameters F, D, and T were obtained from Hukkanen, J. et al. Pharmacol Rev. 2005 March; 57(1):79-115 and U.S. Patent Publication No. 20130017259A1. Further, the pharmacokinetic parameter absorption rate constant (ka) shown in the above table was obtained by fitting the orally administered nicotine PK data (obtained from Benowitz, N. L. et al. Clin Pharmacol Ther. 1991 March; 49(3):270-7) to a two-compartmental pharmacokinetic model (shown in FIG. 4). Pharmacokinetic parameters Vd (volume of distribution) and ke (elimination rate constant) were obtained by fitting intravenously administered nicotine PK data (obtained from Benowitz, N. L. et al. Clin Pharmacol Ther. 1991 March; 49(3):270-7) to the two-compartmental model shown in FIG. 4 without the absorption component and lag component.
# [4] = transdermal delivery device, clinical PK data fitted to two-compartmental model with lag compartment
# From the text: To obtain the graphs shown in FIGS. 5-7, the plasma concentration-time profile of nicotine administered transdermally was simulated by means of a two compartmental model, as shown in FIG. 4. In addition to the two compartments (Central and peripheral), the lag compartment was included to take absorption lag into account associated with transdermal delivery.
smiles,measurement,setting,value
CN1CCCC1c1cccnc1 (stereo not drawn) [nicotine],"F (oral bioavailability), average value",[1],0.32
same,"effect on attention, memory and psychomotor speed",[2]; 15 mg per day transdermal nicotine vs placebo,"significant nicotine-associated improvements in attention, memory, and psychomotor speed"
same,safety and tolerability,[2]; 15 mg per day transdermal nicotine,excellent safety and tolerability
same,Vd,"[3]; human, plasma, iv",76 L
same,"ke (elimination rate constant), average value",[3]; intravenous nicotine PK data of Benowitz et al. fitted to two-compartmental model without absorption and lag components,0.9 h⁻¹
same,"ka (absorption rate constant), average value",[3]; oral nicotine PK data of Benowitz et al. fitted to two-compartmental model,2.5 h⁻¹
same,"Vd (volume of distribution), average value",[4],59 L
same,"ka (absorption rate constant), average value",[4],0.29 h⁻¹
same,"ke (elimination rate constant), average value",[4],2.15 h⁻¹

# — US20200368175A1, “METHODS AND DEVICES FOR TREATING LEVODOPA INDUCED DYSKINESIA” (CHRONO THERAPEUTICS INC., priority 2017, published 2020)
